Source: patent US8680150B2, “Small molecule hematopoietic growth factor mimetic compounds that activate hematopoietic growth factor receptors” (Ligand Pharmaceuticals, Inc., priority 2009, dated 2014)

Each molecule was assayed on UT7/EPO Cell line (assay: Cell proliferation assay in UT7/EPO cell line (ViaLight Plus)). Details: compound at 10 uM; efficacy relative to EPO (100%); UT7/EPO cells expressing endogenous EPO receptor, starved of EPO overnight; 72 hours at 37° C.
Format: cell-based, human
Method: The primary testing for the exemplified compounds was performed in UT7/EPO Cell line. UT7/EPO is human leukemia cell line, obtained from Dr. Norio Komatsu (Blood, Vol 82 (2), pp 456-464, 1993). These cells express endogenous EPO receptor and are dependant upon EPO for growth and proliferation. Briefly, the cells were starved of EPO overnight and plated in 96 or 384 well plates. The compounds were added to the cells at 10 uM concentration. The plates were then incubated at 37° C. for 72 hours. The proliferative effect of the compounds was measured by a commercially available kit from Lonza (ViaLight Plus).

SMILES | Activity (%)
CC1=NN(c2ccc3ccccc3n2)C(=O)/C1=N\Nc1ccc(O)cc1 [Compound 108, 4-(4-Hydroxyphenyl)hydrazono-1-(2-quinolino)-3-methyl-5-pyrazolone] | 2.4%
COc1ccc2c(c1)cc(C(=O)N/N=C/c1ccc(O)cc1)n2C [Compound 121, (1-Methyl-5-methoxyindole-2-)carboxyl(4-hydroxybenzylidene)hydrazide] | 12%
O=C(N/N=C/c1ccccc1O)c1ccc(N2CCCC2=O)cc1 [Compound 123, 4-(2-Oxopyrrolidino-1-)benz(2-hydroxybenzylidene)hydrazide] | 5.1%
Cc1cccc(C(=O)N/N=C/c2ccccc2O)c1 [Compound 124, 3-Methylbenz(2-hydroxybenzylidene)hydrazide] | 3.4%
O=C(N/N=C/c1ccc2ccccc2c1)c1ccc(-c2ccccc2)cc1 [Compound 125, 4-Phenylbenz(2-naphthylidene)hydrazide] | 15%
O=C(N/N=C/c1ccc2ccccc2c1)c1ccc(O)cc1 [Compound 126, 4-Hydroxybenz(2-naphthylidene)hydrazide] | 3.4%
CN(C)c1ccc(/C=N/NC(=O)c2ccc(N3CCCC3=O)cc2)cc1 [Compound 127, 4-(2-Oxopyrrolidino-1-)benz(4-dimethylaminobenzylidene)hydrazide] | 6.8%
COc1ccc(C(=O)N/N=C/c2cccc(OC)c2)cc1 [Compound 128, 4-Methoxybenz(3-methoxybenzylidene)hydrazide] | 5.6%
COc1ccc(O)c(/C=N/NC(=O)c2ccc(N3CCCC3=O)cc2)c1 [Compound 129, 4-(2-Oxopyrrolidino-1-)benz(2-hydroxy-5-methoxybenzylidene)hydrazide] | 23%
COc1cc(/C=N/NC(=O)c2ccc(N3CCCC3=O)cc2)ccc1O [Compound 130, 4-(2-Oxopyrrolidino-1-)benz(4-hydroxy-3-methoxybenzylidene)hydrazide] | 20%
COc1ccc(/C=N/NC(=O)c2ccc(N3CCCC3=O)cc2)cc1 [Compound 131, 4-(2-Oxopyrrolidino-1-)benz(4-methoxybenzylidene)hydrazide] | 15%
COc1ccc(/C=N/NC(=O)c2ccc(N3CCCC3=O)cc2)cc1OC [Compound 132, 4-(2-Oxopyrrolidino-1-)benz(3,4-dimethoxybenzylidene)hydrazide] | 8.7%
COc1cccc(/C=N/NC(=O)c2ccc(OCc3ccc(Cl)cc3)cc2)c1 [Compound 133, 4-(4-Chlorobenzyloxy)benz(3-methoxybenzylidene)hydrazide] | 14%
COc1cccc(/C=N/NC(=O)c2ccc(OCc3ccc(C)cc3)cc2)c1 [Compound 134, 4-(4-Methylbenzyloxy)benz(3-methoxybenzylidene)hydrazide] | 14%
COc1cccc(/C=N/NC(=O)c2ccc(-n3cccc3)cc2)c1 [Compound 135, 4-(1-Pyrrolyl)benz(3-methoxybenzylidene)hydrazide] | 12%
COc1cc(/C=N/NC(=O)c2ccc(OCc3ccc(C)cc3)cc2)cc(OC)c1OC [Compound 136, 4-(4-Methylbenzyloxy)benz(3,4,5-trimethoxybenzylidene)hydrazide] | 4.8%
COc1ccc(/C=N/NC(=O)c2ccc(OCc3ccc(Cl)cc3)cc2)cc1OC [Compound 137, 4-(4-Chlorobenzyloxy)benz(3,4-dimethoxybenzylidene)hydrazide] | 12%
COc1ccc(/C=N/NC(=O)c2ccc(OCc3ccc(C)cc3)cc2)cc1OC [Compound 138, 4-(4-Methylbenzyloxy)benz(3,4-dimethoxybenzylidene)hydrazide] | 18%
COc1cccc(/C=N/NC(=O)c2ccc(-c3ccccc3)cc2)c1 [Compound 140, 4-Phenylbenz(3-methoxybenzylidene)hydrazide] | 14%
COc1cc(/C=N/NC(=O)c2ccc(OCc3ccc(Cl)cc3)cc2)ccc1O [Compound 141, 4-(4-Chlorobenzyloxy)benz(4-hydroxy-3-methoxybenzylidene)hydrazide] | 17%
COc1cccc(/C=N/NC(=O)c2ccc(OCc3ccc(Br)cc3)cc2)c1 [Compound 142, 4-(4-Bromobenzyloxy)benz(3-methoxybenzylidene)hydrazide] | 6.0%

SMILES | Activity (%)
COc1cccc(/C=N/NC(=O)c2ccc(OCc3ccc(F)cc3)cc2)c1 [Compound 143, 4-(4-Fluorobenzyloxy)benz(3-methoxybenzylidene)hydrazide] | 14%
COc1cc(/C=N/NC(=O)c2ccc(-c3ccccc3)cc2)ccc1O [Compound 144, 4-Phenylbenz(4-hydroxy-3-methoxybenzylidene)hydrazide] | 15%
CCCCCCCCCCCCCCCCCC(=O)N/N=C/c1cc(OC)ccc1O [Compound 148, Octadecano(2-hydroxy-5-methoxybenzylidene)hydrazide] | 7.1%
COc1cccc(/C=N/NC(=O)c2ccc(OCc3ccccc3)cc2)c1 [Compound 149, 4-Benzyloxybenz(3-methoxybenzylidene)hydrazide] | 9.7%
COc1cccc(/C=N/NC(=O)c2ccc(-c3cnco3)cc2)c1 [Compound 150, 4-(4-Oxazolyl)benz(3-methoxybenzylidene)hydrazide] | 4.5%
COc1ccc(O)c(/C=N/NC(=O)c2ccc(-c3ccccc3)cc2)c1 [Compound 151, 4-Phenylbenz(2-hydroxy-5-methoxybenzylidene)hydrazide] | 6.3%
COc1ccc(COc2ccc(C(=O)N/N=C/c3cccc(OC)c3)cc2)cc1 [Compound 152, 4-(4-Methoxybenzyloxy)benz(3-methoxybenzylidene)hydrazide] | 6.9%
COc1cccc(/C=N/NC(=O)c2ccc(OCc3cccc(Cl)c3)cc2)c1 [Compound 153, 4-(3-Chlorobenzyloxy)benz(3-methoxybenzylidene)hydrazide] | 5.3%
COc1cccc(/C=N/NC(=O)c2ccc(OCc3ccc(C(F)(F)F)cc3)cc2)c1 [Compound 154, 4-(4-Trifluoromethylbenzyloxy)benz(3-methoxybenzylidene)hydrazide] | 6.7%
COc1cccc(/C=N/NC(=O)c2ccc(OCc3cccc(OC)c3)cc2)c1 [Compound 155, 4-(3-Methoxybenzyloxy)benz(3-methoxybenzylidene)hydrazide] | 11%
C=Cc1ccc(COc2ccc(C(=O)N/N=C/c3cccc(OC)c3)cc2)cc1 [Compound 156, 4-(4-Vinylbenzyloxy)benz(3-methoxybenzylidene)hydrazide] | 7.9%
COc1cccc(/C=N/NC(=O)c2ccc(OCc3ccc4ccccc4c3)cc2)c1 [Compound 157, 4-(2-Naphthylmethoxy)benz(3-methoxybenzylidene)hydrazide] | 9.9%
COc1cc(/C=N/NC(=O)c2ccc(-c3ccccc3)cc2)ccc1F [Compound 159, 4-Phenylbenz(4-fluoro-3-methoxybenzylidene)hydrazide] | 8.9%
COc1cc(/C=N/NC(=O)c2ccc(-c3ccccc3)cc2)cc(OC)c1 [Compound 160, 4-Phenylbenz(3,5-dimethoxybenzylidene)hydrazide] | 6.1%
COc1cccc(/C=N/NC(=O)c2ccc(-c3ccccc3F)cc2)c1 [Compound 161, 4-(2-Fluorophenyl)phenylbenz(3-methoxybenzylidene)hydrazide] | 12%
O=C(N/N=C/c1ccc2[nH]ccc2c1)c1ccc(-c2ccccc2)cc1 [Compound 163, 4-Phenylbenz(5-indolidene)hydrazide] | 23%
C=Cc1cccc(/C=N/NC(=O)c2ccc(-c3ccccc3)cc2)c1 [Compound 164, 4-Phenylbenz(3-vinylbenzylidene)hydrazide] | 11%
CC(=O)c1cccc(/C=N/NC(=O)c2ccc(-c3ccccc3)cc2)c1 [Compound 165, 4-Phenylbenz(3-acetylbenzylidene)hydrazide] | 14%
C=Cc1cccc(/C=N/NC(=O)c2ccc(N(C)C)cc2)c1 [Compound 167, 4-Dimethylaminobenz(3-vinylbenzylidene)hydrazide] | 11%
CN(C)c1ccc(C(=O)N/N=C/c2cccc(/C=C/c3ccccc3)c2)cc1 [Compound 170, 4-Dimethylaminobenz(3-(2E-phenylethenyl)benzylidene)hydrazide] | 4.7%
CN(C)c1ccc(C(=O)N/N=C/c2cccc(CO)c2)cc1 [Compound 171, 4-Dimethylaminobenz(3-hydroxymethylbenzylidene)hydrazide] | 16%

Same assay, conditions: compound at 10 uM; efficacy relative to EPO (100%); UT7/EPO cells expressing endogenous EPO receptor, starved of EPO overnight; 72 hours at 37° C.; 10 µM

SMILES | Activity (%)
COc1cccc(/C=N/NC(=O)c2ccc(N(C)C)cc2)c1 [Compound 139, 4-Dimethylaminobenz(3-methoxybenzylidene)hydrazide] | 7.8%
COc1cccc(/C=N/NC(=O)c2ccc(N(C)C)cc2)c1 [Compound 168, 4-Dimethylaminobenz(3-methoxybenzylidene)hydrazide] | 11%
